Results reported in publication PMC4565880, “Purification and characterization of a novel β-carotene-9′,10′-oxygenase from Saccharomyces cerevisiae ULI3” (Biotechnology Letters, 2015).

System: T1, ScBCO2 (β-carotene-9′,10′-oxygenase)
T1 construct: native enzyme purified from culture supernatant (ammonium sulfate, Q Sepharose, Superdex-200); ~50 kDa by SDS-PAGE; peptide mass fingerprint matched no database entry
Assay: HPLC cleavage assay; Hanes-Woolf plot
Assay type: biochemical, Saccharomyces cerevisiae
Conditions: standard assay: 100 mM Tricine/KOH pH 8.0, 37 °C, 12.5 μM Fe2SO4, Tween 40; temperature of kinetic runs not stated; substrate 10-800 μM
Source text: HPLC cleavage assay; Hanes-Woolf plot on ScBCO2 (β-carotene-9′,10′-oxygenase)

Row | SMILES | Km [µM]
1 | CC1=C[C@H](O)CC(C)(C)[C@H]1/C=C/C(C)=C/C=C/C(C)=C/C=C/C=C(C)/C=C/C=C(C)/C=C/C1=C(C)C[C@@H](O)CC1(C)C [Lutein] | 105 ± 0.3
2 | CC1=CCCC(C)(C)[C@H]1/C=C/C(C)=C/C=C/C(C)=C/C=C/C=C(C)/C=C/C=C(C)/C=C/C1=C(C)CCCC1(C)C [α-carotene] | 48 ± 0.3
3 | CC1=C(/C=C/C(C)=C/C=C/C(C)=C/C=C/C=C(C)/C=C/C=C(C)/C=C/C2=C(C)CCCC2(C)C)C(C)(C)CCC1 [β-carotene] | 37 ± 0.2
